Results published in patent US9931347B2, “Pharmaceutical compound” (IOmet Pharma Ltd., priority 2013, dated 2018).

Key:
[1] = target: T1, IDO (SKOV3 human ovarian adenocarcinoma cells, IFN-γ induced) (Homo sapiens, UniProt P14902); test: SKOV3 Kynurenine cell based assay; settings: IDO induced by 500 ng/ml IFN-γ, 500 μM L-tryptophan, 48 hours
T1 construct: IDO expression was induced in the SKOV3 cells by the addition of 500 ng/ml IFN-γ; endogenous in cells; host or cells: SKOV3 human ovarian adenocarcinoma cells, induced with IFN-γ
Procedure, shortened: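 IFN-γ (500 ng/ml) induced IDO in SKOV3 cells, seeded at 40,000/well in phenol red-free RPMI with 10% FCS, 2 mM L-glutamine and 500 μM L-tryptophan. Cells were incubated with or without compound at 37° C for 48 h. Supernatant kynurenine was detected with Ehrlich's reagent.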

[2] = target: T2, TDO (A172 human glioblastoma cells) (Homo sapiens, UniProt P48775); test: A172 Kynurenine cell based assay; settings: 500 μM L-tryptophan, 48 hours, kynurenine by Erhlich's reagent
T2 construct: This assay utilised cancer cells which expressed either TDO or IDO; endogenous in cells; host or cells: A172 human glioblastoma cells
Procedure, shortened: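 A172 glioblastoma cells (30,000/well) cultured at 37° C. in phenol red-free RPMI with 10% FCS, 2 mM L-glutamine and 500 μM L-tryptophan, with or without test compound. After 48 hours, kynurenine in the supernatant was read with Erhlich's reagent (5 min) as absorbance at 490 nm.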

[3] = target: Recombinant human TDO (Homo sapiens, UniProt P48775); test: hTDO biochemical coupled assay; settings: 330 μM L-tryptophan, coupled with kynurenine formamidase
Procedure: (§1) Exemplary compounds of the invention were prepared, and tested to determine their effect as TDO and/or IDO inhibitors. Two different assays were employed: 1. a cell-based assay for detecting the effect of test compounds on kynurenine production in two different cancer cell types. This assay utilised cancer cells which expressed either TDO or IDO and as such was used as a means of testing compound activity at these two enzymes in a cell-based context. 2. a TDO and IDO biochemical coupled assay which utilised recombinantly produced and purified TDO and IDO enzymes in combination with the enzyme formamidase. This coupled enzyme system allowed conversion of N-formylkynurenine produced by TDO or IDO activity to kynurenine which was then quantified by fluorescence following addition of Erhlich's Reagent The protocols for these are set out below.
Recombinant human IDO or TDO was incubated in 50 mM KPO4 (pH 7.0), 0.5 mM EGTA, 0.5 mM EDTA, 0.05% Triton™ X100, 20 mM ascorbate, 10 μM methylene blue, 500 U/ml catalase, 50 μg/ml KynB (kynurenine formamidase). TDO assays were carried out in the presence of 330 μM L-tryptophan, while IDO assays had the addition of 45 μM L-tryptophan. After incubation for 17 minutes at room temperature the reactions were stopped by the addition of Erhlich's reagent and incubated at room temperature for 5 minutes before the fluorescence was read (Ex475, Em530).

[4] = target: Recombinant human IDO (Homo sapiens, UniProt P14902); test: hIDO biochemical coupled assay; settings: 45 μM L-tryptophan, coupled with kynurenine formamidase
Procedure: as §1
Recombinant human IDO or TDO was incubated in 50 mM KPO4 (pH 7.0), 0.5 mM EGTA, 0.5 mM EDTA, 0.05% Triton™ X100, 20 mM ascorbate, 10 μM methylene blue, 500 U/ml catalase, 50 μg/ml KynB (kynurenine formamidase).

T1 sequence (P14902 whole entry): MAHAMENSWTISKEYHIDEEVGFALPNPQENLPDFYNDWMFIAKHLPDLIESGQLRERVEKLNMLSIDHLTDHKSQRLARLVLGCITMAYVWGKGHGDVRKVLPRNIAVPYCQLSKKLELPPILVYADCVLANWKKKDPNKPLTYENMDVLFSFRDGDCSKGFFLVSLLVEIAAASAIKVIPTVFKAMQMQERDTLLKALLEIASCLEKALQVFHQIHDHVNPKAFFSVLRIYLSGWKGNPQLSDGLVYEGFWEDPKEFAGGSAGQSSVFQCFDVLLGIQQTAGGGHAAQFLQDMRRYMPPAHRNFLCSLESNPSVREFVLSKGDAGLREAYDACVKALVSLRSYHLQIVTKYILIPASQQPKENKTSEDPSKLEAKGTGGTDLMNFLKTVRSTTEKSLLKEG
Sequence of Recombinant human IDO (P14902 whole entry): as above
T2 sequence (P48775 whole entry): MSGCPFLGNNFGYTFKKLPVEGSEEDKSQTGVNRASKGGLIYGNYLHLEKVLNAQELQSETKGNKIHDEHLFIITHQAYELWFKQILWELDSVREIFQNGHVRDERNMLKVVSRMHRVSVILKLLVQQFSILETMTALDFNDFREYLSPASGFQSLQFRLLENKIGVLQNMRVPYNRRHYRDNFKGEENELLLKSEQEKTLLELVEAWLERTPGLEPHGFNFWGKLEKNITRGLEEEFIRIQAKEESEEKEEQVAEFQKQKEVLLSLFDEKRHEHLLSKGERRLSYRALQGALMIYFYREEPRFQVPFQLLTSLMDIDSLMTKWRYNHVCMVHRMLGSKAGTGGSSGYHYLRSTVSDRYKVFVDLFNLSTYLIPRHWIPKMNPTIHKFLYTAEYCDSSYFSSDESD
Sequence of Recombinant human TDO (P48775 whole entry): as above

Structure (SMILES)	SKOV3 Kynurenine cell based assay pIC50 [1]	A172 Kynurenine cell based assay pIC50 [2]	hTDO biochemical assay pIC50 [3]	hIDO biocehmical assay pIC50 [4]
Cc1[nH]c2ccccc2c1C1CCN(S(=O)(=O)c2ccc([N+](=O)[O-])cc2)CC1 [Compound 25]	+ (+ = pIC50 4.00-4.99)	+− (+− = pIC50 <4.00)	+− (+− = pIC50 <4.00)	+− (+− = pIC50 <4.00)
FC(F)(F)CN1CCC(c2c[nH]c3ccccc23)CC1 [Compound 10]	+− (+− = pIC50 <4.00)	+ (+ = pIC50 4.00-4.99)	+− (+− = pIC50 <4.00)	+− (+− = pIC50 <4.00)
O=C(c1ccccc1)N1CCC(c2c[nH]c3ccccc23)CC1 [Compound 82]	+− (+− = pIC50 <4.00)	+ (+ = pIC50 4.00-4.99)	+− (+− = pIC50 <4.00)	+− (+− = pIC50 <4.00)
CS(=O)(=O)N1CC=C(c2c[nH]c3cccc(F)c23)CC1 [Compound 78]	+− (+− = pIC50 <4.00)	+ (+ = pIC50 4.00-4.99)	+ (+ = pIC50 4.00-4.99)	+− (+− = pIC50 <4.00)
CC(=O)N1CC=C(c2c[nH]c3cc(F)c(F)cc23)CC1 [Compound 167]	+ (+ = pIC50 4.00-4.99)	++ (++ = pIC50 5.00-5.99)	++ (++ = pIC50 5.00-5.99)	+− (+− = pIC50 <4.00)
NS(=O)(=O)N1CC=C(c2c[nH]c3ccccc23)CC1 [Compound 162]	+− (+− = pIC50 <4.00)	+++ (+++ = pIC50 ≥6.00)	+++ (+++ = pIC50 ≥6.00)	+− (+− = pIC50 <4.00)
CS(=O)(=O)N1CCC(c2c[nH]c3ccccc23)CC1 [Compound 3]	+− (+− = pIC50 <4.00)	++ (++ = pIC50 5.00-5.99)	++ (++ = pIC50 5.00-5.99)	+− (+− = pIC50 <4.00)
Cn1cnc(S(=O)(=O)N2CCC(c3c[nH]c4ccccc34)CC2)c1 [Compound 4]	+− (+− = pIC50 <4.00)	+ (+ = pIC50 4.00-4.99)	+ (+ = pIC50 4.00-4.99)	+− (+− = pIC50 <4.00)
COc1ccc(Br)cc1S(=O)(=O)N1CCC(c2c[nH]c3ccc(F)cc23)CC1 [Compound 27]	+ (+ = pIC50 4.00-4.99)	+ (+ = pIC50 4.00-4.99)	+− (+− = pIC50 <4.00)	+− (+− = pIC50 <4.00)
CS(=O)(=O)N1CC=C(c2c[nH]c3ccc(F)cc23)CC1 [Compound 90]	+ (+ = pIC50 4.00-4.99)	++ (++ = pIC50 5.00-5.99)	++ (++ = pIC50 5.00-5.99)	+− (+− = pIC50 <4.00)
CC(=O)N1CC=C(c2c[nH]c3cccc(F)c23)CC1 [Compound 77]	+ (+ = pIC50 4.00-4.99)	+ (+ = pIC50 4.00-4.99)	+ (+ = pIC50 4.00-4.99)	+− (+− = pIC50 <4.00)
CCNC(=O)N1CCC(c2c[nH]c3ccccc23)CC1 [Compound 68]	+− (+− = pIC50 <4.00)	+ (+ = pIC50 4.00-4.99)	++ (++ = pIC50 5.00-5.99)	+− (+− = pIC50 <4.00)
Cc1[nH]c2ccccc2c1C1CCN(C(=O)C2CCCO2)CC1 (centres unmarked) [Compound 17]	+ (+ = pIC50 4.00-4.99)	+− (+− = pIC50 <4.00)	+− (+− = pIC50 <4.00)	+− (+− = pIC50 <4.00)
CS(=O)(=O)N1CCC(c2c[nH]c3cnccc23)CC1 [Compound 176]	+ (+ = pIC50 4.00-4.99)	+ (+ = pIC50 4.00-4.99)	+− (+− = pIC50 <4.00)	+− (+− = pIC50 <4.00)
O=S(=O)(c1cccc(OC(F)(F)F)c1)N1CCC(c2c[nH]c3ccccc23)CC1 [Compound 57]	+ (+ = pIC50 4.00-4.99)	+ (+ = pIC50 4.00-4.99)	+− (+− = pIC50 <4.00)	+− (+− = pIC50 <4.00)
COC(=O)c1ccccc1S(=O)(=O)N1CCC(c2c[nH]c3ccc(C#N)cc23)CC1 [Compound 56]	++ (++ = pIC50 5.00-5.99)	+− (+− = pIC50 <4.00)	+− (+− = pIC50 <4.00)	+− (+− = pIC50 <4.00)
COc1cccc2c(C3=CCN(C(C)=O)CC3)c[nH]c12 [Compound 88]	+− (+− = pIC50 <4.00)	+ (+ = pIC50 4.00-4.99)	++ (++ = pIC50 5.00-5.99)	+− (+− = pIC50 <4.00)
CCn1ncc(S(=O)(=O)N2CCC3(CC2)C(=O)Nc2ccccc23)c1C [Compound 173]	+ (+ = pIC50 4.00-4.99)	+ (+ = pIC50 4.00-4.99)	+− (+− = pIC50 <4.00)	+− (+− = pIC50 <4.00)
CC(=O)N1CCC(c2c[nH]c3ccccc23)CC1 [Compound 1]	+ (+ = pIC50 4.00-4.99)	++ (++ = pIC50 5.00-5.99)	+− (+− = pIC50 <4.00)	+− (+− = pIC50 <4.00)
NC(=O)N1CCC(c2c[nH]c3ccccc23)CC1 [Compound 16]	+− (+− = pIC50 <4.00)	+ (+ = pIC50 4.00-4.99)	+− (+− = pIC50 <4.00)	+− (+− = pIC50 <4.00)
CC(C)S(=O)(=O)N1CCC(c2c[nH]c3ccccc23)CC1 [Compound 73]	+− (+− = pIC50 <4.00)	+ (+ = pIC50 4.00-4.99)	+− (+− = pIC50 <4.00)	+− (+− = pIC50 <4.00)
Cc1ccc2[nH]cc(C3CCN(S(=O)(=O)c4ccc(C(C)(C)C)cc4)CC3)c2c1 [Compound 58]	+ (+ = pIC50 4.00-4.99)	+ (+ = pIC50 4.00-4.99)	+− (+− = pIC50 <4.00)	+− (+− = pIC50 <4.00)
CS(=O)(=O)N1CCC(C2C(=O)Nc3cc(F)ccc32)CC1 (centres unmarked) [Compound 178]	++ (++ = pIC50 5.00-5.99)	+− (+− = pIC50 <4.00)	+− (+− = pIC50 <4.00)	+− (+− = pIC50 <4.00)
COc1ccc2[nH]cc(C3CCN(S(=O)(=O)c4cc(C(F)(F)F)ccc4C(F)(F)F)CC3)c2c1 [Compound 55]	++ (++ = pIC50 5.00-5.99)	+− (+− = pIC50 <4.00)	+− (+− = pIC50 <4.00)	+− (+− = pIC50 <4.00)
CS(=O)(=O)N1CC=C(c2c[nH]c3cc(F)ccc23)CC1 [Compound 103]	+ (+ = pIC50 4.00-4.99)	+++ (+++ = pIC50 ≥6.00)	++ (++ = pIC50 5.00-5.99)	+− (+− = pIC50 <4.00)
CS(=O)(=O)N1CC=C(c2c[nH]c3ccc(Cl)cc23)CC1 [Compound 166]	+ (+ = pIC50 4.00-4.99)	++ (++ = pIC50 5.00-5.99)	+ (+ = pIC50 4.00-4.99)	+− (+− = pIC50 <4.00)
